Source: patent US12281122B1, “PI3K inhibitors” (Cogent Biosciences, Inc., priority 2023, dated 2025)

Columns and labels:
[1] = tested on: T47D (PI3Kα-H1047R) cell line; experiment: HTRF phospho-AKT(S473) cell assay in T47D cells; format: cell-based, human; conditions: Homo sapiens; HTRF phospho-AKT(S473), T47D (PI3Kα-H1047R) cells, 2 hours compound incubation
How it was run: (§1)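 Cells plated overnight (T47D in RPMI/10% FBS/0.2 units/mL insulin; SKBR3 in McCoy's 5A/10% FBS), then given 12-point 1:3 compound series (top 5 μM T47D, 10 μM SKBR3; ≤0.5% DMSO) for 2 h at 37° C. SKBR3 stimulated with 70 ng/ml PDGF-BB for final 15 min. Lysate pAKT(S473) by HTRF; IC50 calculated.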

[2] = tested on: SKBR3 (PI3Kα-Wild Type) cell line; experiment: HTRF phospho-AKT(S473) cell assay in SKBR3 cells; format: cell-based, human; conditions: Homo sapiens, SK-BR-3; HTRF phospho-AKT(S473), SKBR3 (PI3Kα-Wild Type) cells, 2 hours compound incubation, PDGF-BB stimulated
How it was run: as §1

| IC50 [1] [nM] | IC50 [2] [nM] | SMILES |
| --- | --- | --- |
| 250 to 500 | ≥ 5000 | Cc1cnc(N2CCN(c3nc4c([C@@H](C)Nc5ccc(Cl)nc5C(=O)NS(C)(=O)=O)cc(C)cc4c(=O)n3C)CC2)nc1 [Compound 532, (R)-6-chloro-3-((1-(3,6-dimethyl-2-(4-(5-methylpyrimidin-2-yl)piperazin-1-yl)-4-oxo-3,4-dihydroquinazolin-8-yl)ethyl)amino)-N-(methylsulfonyl) picolinamide] |
| < 250 | 1000 to 5000 | Cc1cc([C@@H](C)Nc2ccc(Cl)nc2C(=O)NS(C)(=O)=O)c2nc(N3CC[C@@H](Oc4ncc(F)cn4)C3)n(C)c(=O)c2c1 [Compound 538, 6-chloro-3-(((R)-1-(2-((R)-3-((5-fluoropyrimidin-2-yl)oxy)pyrrolidin-1-yl)-3,6-dimethyl-4-oxo-3,4-dihydroquinazolin-8-yl)ethyl)amino)-N-(methylsulfonyl) picolinamide] |
| < 250 | ≥ 5000 | Cc1cc([C@@H](C)Nc2ccc(Cl)nc2C(=O)NS(C)(=O)=O)c2nc(N3CCC(c4cc(C)no4)CC3)n(C)c(=O)c2c1 [Compound 539, (R)-6-chloro-3-((1-(3,6-dimethyl-2-(4-(3-methylisoxazol-5-yl)piperidin-1-yl)-4-oxo-3,4-dihydroquinazolin-8-yl)ethyl)amino)-N-(methylsulfonyl) picolinamide] |
| < 250 | 1000 to 5000 | Cc1cc([C@@H](C)Nc2ccc(Cl)nc2C(=O)NS(C)(=O)=O)c2nc(N3CCC(c4ncc(C)c(C)n4)CC3)n(C)c(=O)c2c1 [Compound 544, (R)-6-chloro-3-((1-(2-(4-(4,5-dimethylpyrimidin-2-yl)piperidin-1-yl)-3,6-dimethyl-4-oxo-3,4-dihydroquinazolin-8-yl)ethyl)amino)-N-(methylsulfonyl) picolinamide] |
| < 250 | ≥ 5000 | Cc1cc([C@@H](C)Nc2ccc(Cl)nc2C(=O)NS(C)(=O)=O)c2nc(N3CCC(c4nc(C)co4)CC3)n(C)c(=O)c2c1 [Compound 545, (R)-6-chloro-3-((1-(3,6-dimethyl-2-(4-(4-methyloxazol-2-yl)piperidin-1-yl)-4-oxo-3,4-dihydroquinazolin-8-yl)ethyl)amino)-N-(methylsulfonyl) picolinamide] |
| 250 to 500 | ≥ 5000 | Cc1cc([C@@H](C)Nc2ccc(Cl)nc2C(=O)NS(C)(=O)=O)c2nc(N3CCC(c4n[nH]c(C)c4F)CC3)n(C)c(=O)c2c1 [Compound 547, (R)-6-chloro-3-((1-(2-(4-(4-fluoro-5-methyl-1H-pyrazol-3-yl)piperidin-1-yl)-3,6-dimethyl-4-oxo-3,4-dihydroquinazolin-8-yl)ethyl)amino)-N-(methylsulfonyl) picolinamide] |
| < 250 | 1000 to 5000 | Cc1cc([C@@H](C)Nc2ccc(Cl)nc2C(=O)NS(C)(=O)=O)c2nc(N3CCC(n4ncnc4C)CC3)n(C)c(=O)c2c1 [Compound 549, (R)-6-chloro-3-((1-(3,6-dimethyl-2-(4-(5-methyl-1H-1,2,4-triazol-1-yl)piperidin-1-yl)-4-oxo-3,4-dihydroquinazolin-8-yl)ethyl)amino)-N-(methylsulfonyl) picolinamide] |
| 250 to 500 | ≥ 5000 | Cc1cc([C@@H](C)Nc2ccc(Cl)nc2C(=O)NS(C)(=O)=O)c2nc(N3CCC(c4ncn(C(C)C)n4)CC3)n(C)c(=O)c2c1 [Compound 550, (R)-6-chloro-3-((1-(2-(4-(1-isopropyl-1H-1,2,4-triazol-3-yl)piperidin-1-yl)-3,6-dimethyl-4-oxo-3,4-dihydroquinazolin-8-yl)ethyl)amino)-N-(methylsulfonyl) picolinamide] |

The remaining lines, values behind:

| SMILES | IC50 [1] [nM] | IC50 [2] [nM] |
| --- | --- | --- |
| Cc1cc([C@@H](C)Nc2ccc(Cl)nc2C(=O)NS(C)(=O)=O)c2nc(N3CCN(c4ncc(C#N)cn4)CC3)n(C)c(=O)c2c1 [Compound 531, (R)-6-chloro-3-((1-(2-(4-(5-cyanopyrimidin-2-yl)piperazin-1-yl)-3,6-dimethyl-4-oxo-3,4-dihydroquinazolin-8-yl)ethyl)amino)-N-(methylsulfonyl) picolinamide] | < 250 | 1000 to 5000 |
| Cc1cc([C@@H](C)Nc2ccc(Cl)nc2C(=O)NS(C)(=O)=O)c2nc(N3CCN(c4ncc(F)cn4)CC3)n(C)c(=O)c2c1 [Compound 533, (R)-6-chloro-3-((1-(2-(4-(5-fluoropyrimidin-2-yl)piperazin-1-yl)-3,6-dimethyl-4-oxo-3,4-dihydroquinazolin-8-yl)ethyl)amino)-N-(methylsulfonyl) picolinamide] | < 250 | 1000 to 5000 |
| Cc1cc([C@@H](C)Nc2ccc(Cl)nc2C(=O)NS(C)(=O)=O)c2nc(N3Cc4nccnc4C3)n(C)c(=O)c2c1 [Compound 534, (R)-6-chloro-3-((1-(2-(5,7-dihydro-6H-pyrrolo[3,4-b]pyrazin-6-yl)-3,6-dimethyl-4-oxo-3,4-dihydroquinazolin-8-yl)ethyl)amino)-N-(methylsulfonyl) picolinamide] | < 250 | 1000 to 5000 |
| Cc1cc([C@@H](C)Nc2ccc(Cl)nc2C(=O)NS(C)(=O)=O)c2nc(N3C[C@@H]4C(c5ncc(Cl)cn5)[C@@H]4C3)n(C)c(=O)c2c1 (stereo partly drawn) [Compound 535, 6-chloro-3-(((1R)-1-(2-((1R,5S)-6-(5-chloropyrimidin-2-yl)-3-azabicyclo[3.1.0]hexan-3-yl)-3,6-dimethyl-4-oxo-3,4-dihydroquinazolin-8-yl)ethyl)amino)-N-(methylsulfonyl) picolinamide] | 250 to 500 | ≥ 5000 |
| Cc1cc([C@@H](C)Nc2ccc(Cl)nc2C(=O)NS(C)(=O)=O)c2nc(N3C[C@@H]4C(c5cnc(C(F)F)nc5)[C@@H]4C3)n(C)c(=O)c2c1 (stereo partly drawn) [Compound 536, 6-chloro-3-(((1R)-1-(2-((1R,5S)-6-(2-(difluoromethyl)pyrimidin-5-yl)-3-azabicyclo[3.1.0]hexan-3-yl)-3,6-dimethyl-4-oxo-3,4-dihydroquinazolin-8-yl)ethyl)amino)-N-(methylsulfonyl) picolinamide] | < 250 | 1000 to 5000 |
| Cc1cc([C@@H](C)Nc2ccc(Cl)nc2C(=O)NS(C)(=O)=O)c2nc(N3CC[C@H](Oc4ncc(F)cn4)C3)n(C)c(=O)c2c1 [Compound 537, 6-chloro-3-(((R)-1-(2-((S)-3-((5-fluoropyrimidin-2-yl)oxy)pyrrolidin-1-yl)-3,6-dimethyl-4-oxo-3,4-dihydroquinazolin-8-yl)ethyl)amino)-N-(methylsulfonyl) picolinamide] | 250 to 500 | ≥ 5000 |
| Cc1cc([C@@H](C)Nc2ccc(Cl)nc2C(=O)NS(C)(=O)=O)c2nc(N3CC[C@H](Nc4ncccn4)C3)n(C)c(=O)c2c1 [Compound 540, 6-chloro-3-(((R)-1-(3,6-dimethyl-4-oxo-2-((S)-3-(pyrimidin-2-ylamino)pyrrolidin-1-yl)-3,4-dihydroquinazolin-8-yl)ethyl)amino)-N-(methylsulfonyl) picolinamide] | 250 to 500 | ≥ 5000 |
| Cc1cc([C@@H](C)Nc2ccc(Cl)nc2C(=O)NS(C)(=O)=O)c2nc(N3CC[C@@H](Nc4ncccn4)C3)n(C)c(=O)c2c1 [Compound 541, 6-chloro-3-(((R)-1-(3,6-dimethyl-4-oxo-2-((R)-3-(pyrimidin-2-ylamino)pyrrolidin-1-yl)-3,4-dihydroquinazolin-8-yl)ethyl)amino)-N-(methylsulfonyl) picolinamide] | < 250 | ≥ 5000 |
| COc1cc([C@H]2[C@@H]3CN(c4nc5c([C@@H](C)Nc6ccc(Cl)nc6C(=O)NS(C)(=O)=O)cc(C)cc5c(=O)n4C)C[C@@H]32)nn1C [Compound 542, 6-chloro-3-(((R)-1-(2-((1R,5S,6R)-6-(5-methoxy-1-methyl-1H-pyrazol-3-yl)-3-azabicyclo[3.1.0]hexan-3-yl)-3,6-dimethyl-4-oxo-3,4-dihydroquinazolin-8-yl)ethyl)amino)-N-(methylsulfonyl) picolinamide] | 250 to 500 | ≥ 5000 |
| Cc1cc([C@@H](C)Nc2ccc(Cl)nc2C(=O)NS(C)(=O)=O)c2nc(N3C[C@@H]4[C@H](C3)[C@H]4n3cc(F)c(C)n3)n(C)c(=O)c2c1 [Compound 543, 6-chloro-3-(((R)-1-(2-((1R,5S,6S)-6-(4-fluoro-3-methyl-1H-pyrazol-1-yl)-3-azabicyclo[3.1.0]hexan-3-yl)-3,6-dimethyl-4-oxo-3,4-dihydroquinazolin-8-yl)ethyl)amino)-N-(methylsulfonyl) picolinamide] | 250 to 500 | ≥ 5000 |
| CCn1c(N2CCc3nn(C)cc3C2)nc2c([C@@H](C)Nc3ccc(Cl)nc3C(=O)NS(C)(=O)=O)cc(C)cc2c1=O [Compound 546, (R)-6-chloro-3-((1-(3-ethyl-6-methyl-2-(2-methyl-2,4,6,7-tetrahydro-5H-pyrazolo[4,3-c]pyridin-5-yl)-4-oxo-3,4-dihydroquinazolin-8-yl)ethyl)amino)-N-(methylsulfonyl) picolinamide] | < 250 | 1000 to 5000 |
| Cc1cc([C@@H](C)Nc2ccc(Cl)nc2C(=O)NS(C)(=O)=O)c2nc(N3C[C@@H]4[C@H](C3)[C@H]4c3ccnc(C)c3F)n(C)c(=O)c2c1 [Compound 548, 6-chloro-3-(((R)-1-(2-((1R,5S,6S)-6-(3-fluoro-2-methylpyridin-4-yl)-3-azabicyclo[3.1.0]hexan-3-yl)-3,6-dimethyl-4-oxo-3,4-dihydroquinazolin-8-yl)ethyl)amino)-N-(methylsulfonyl) picolinamide] | 250 to 500 | 1000 to 5000 |
